Values of other authors, collected in patent US9308212B2, “Compositions comprising alprazolam for treating primary insomnia and insomnia associated with anxiety states and process for preparing them” (LABORATORIOS BAGO S.A., priority 2008, dated 2016).

For `CO[C@@H]1[C@@H](OC(N)=O)[C@@H](O)[C@H](Oc2ccc3c(O)c(NC(=O)c4ccc(O)c(CC=C(C)C)c4)c(=O)oc3c2C)OC1(C)C` [amorphous novobiocine, novobiocine], the “Solubility of the amorphous form relative to the crystalline form” value is listed as 10 times.
